The record followed here is ChEMBL document CHEMBL5365464, “Structure-Based Optimization of the Third Generation Type II Macrocycle TRK Inhibitors with Improved Activity against Solvent-Front, xDFG, and Gatekeeper Mutations” (J Med Chem, 2023).

The test system of experiment [1] is BaF3. Kind of experiment: Antiproliferative activity against mouse BaF3 cells harbouring CD74-NTRK1 fusion protein incubated for 3 days by CCK8 method. The note with it: BaF3, 72 h.
The subject of experiment [2] is BaF3. Kind of experiment: Antiproliferative activity against mouse BaF3 cells harbouring ETV6-TRKC G696C mutant incubated for 3 days by CCK8 method. The conditions noted are these: BaF3, 72 h.
The subject of experiment [3] is BaF3. Kind of experiment: Antiproliferative activity against mouse BaF3 cells harbouring ETV6-TRKB G709C mutant incubated for 3 days by CCK8 method. The note with it: BaF3, 72 h.
Experiment [4] has as its system BaF3. The experiment is described as follows: cells. The note with it: Mus musculus, BaF3, 72 h.
Experiment [5] relates to BaF3. Kind of experiment: Antiproliferative activity against mouse BaF3 cells harbouring ETV6-TRKC V601M mutant incubated for 3 days by CCK8 method. The note with it: BaF3, 72 h.
For experiment [6], the system named is BaF3. Kind of experiment: Antiproliferative activity against mouse BaF3 cells harbouring ETV6-TRKC G696A mutant incubated for 3 days by CCK8 method. The conditions noted are these: BaF3, 72 h.
Experiment [7] has as its system BaF3. Kind of experiment: Antiproliferative activity against mouse BaF3 cells harbouring ETV6-TRKB F633L mutant incubated for 3 days by CCK8 method. The conditions noted are these: BaF3, 72 h.
Experiment [8] deals with BaF3. The experiment is described as follows: Antiproliferative activity against mouse BaF3 cells harbouring CD74-NTRK1 G595R mutant fusion protein incubated for 3 days by CCK8 method. It counts as functional, cell-based. The note with it: BaF3, 72 h.
Experiment [9] relates to BaF3. The experiment is described as follows: Antiproliferative activity against mouse BaF3 cells harbouring ETV6-NTRK3 fusion protein incubated for 3 days by CCK8 method. The conditions noted are these: BaF3, 72 h.
The test system of experiment [10] is BaF3. Kind of experiment: Antiproliferative activity against mouse BaF3 cells harbouring ETV6-TRKC F617L mutant incubated for 3 days by CCK8 method. The conditions noted are these: BaF3, 72 h.
The subject of experiment [11] is BaF3. The experiment is described as follows: Antiproliferative activity against mouse BaF3 cells harbouring CD74-[…] mutant fusion protein incubated for 3 days by CCK8 method. It counts as functional, cell-based. The note with it: BaF3, 72 h.
Experiment [12] relates to BaF3. The experiment is described as follows: cells. The note with it: Mus musculus, BaF3, 72 h. The source holds these as a separate data set.
Experiment [13] has as its system BaF3. Kind of experiment: Antiproliferative activity against mouse BaF3 cells harbouring ETV6-TRKB V617M mutant incubated for 3 days by CCK8 method. The conditions noted are these: BaF3, 72 h.
In experiment [14] the test system is BaF3. The experiment is described as follows: Antiproliferative activity against mouse BaF3 cells harbouring ETV6-TRKB G639R mutant incubated for 3 days by CCK8 method. The note with it: BaF3, 72 h.
Experiment [15] deals with BaF3. Kind of experiment: Antiproliferative activity against mouse BaF3 cells harbouring ETV6-TRKC G623E mutant incubated for 3 days by CCK8 method. The conditions noted are these: BaF3, 72 h.
In experiment [16] the test system is BaF3. Kind of experiment: Antiproliferative activity against mouse BaF3 cells incubated for 3 days by CCK8 method. The conditions noted are these: BaF3, 72 h.
Experiment [17] relates to BaF3. Kind of experiment: Antiproliferative activity against mouse BaF3 cells harbouring ETV6-TRKC G6968 mutant incubated for 3 days by CCK8 method. The conditions noted are these: BaF3, 72 h.
The subject of experiment [18] is BaF3. The experiment is described as follows: cells. The note with it: Mus musculus, BaF3, 72 h. This is another data set of the same source.
The test system of experiment [19] is BaF3. Kind of experiment: Antiproliferative activity against mouse BaF3 cells harbouring ETV6-TRKC G623R mutant incubated for 3 days by CCK8 method. The note with it: BaF3, 72 h.
Experiment [20] has as its system BaF3. Kind of experiment: Antiproliferative activity against mouse BaF3 cells harbouring CD74-TRKA G667A mutant incubated for 3 days by CCK8 method. The note with it: BaF3, 72 h.
Experiment [21] deals with BaF3. Kind of experiment: Antiproliferative activity against mouse BaF3 cells harbouring CD74-TRKA G6678 mutant incubated for 3 days by CCK8 method. The note with it: BaF3, 72 h.
The subject of experiment [22] is BaF3. The experiment is described as follows: Antiproliferative activity against mouse BaF3 cells harbouring wild type ETV6-TRKB incubated for 3 days by CCK8 method. The conditions noted are these: BaF3, 72 h.
The subject of experiment [23] is BaF3. Kind of experiment: Antiproliferative activity against mouse BaF3 cells harbouring TRKA-F589L fusion protein incubated for 3 days by CCK8 method. The conditions noted are these: BaF3, 72 h.
Experiment [24] concerns the target High affinity nerve growth factor receptor (Homo sapiens, UniProt P04629, G667C). Kind of experiment: Inhibition of TRKA G667C mutant (unknown origin) expressed in baculovirus expression system Sf9 cells using Ser/Thr 06 as peptide substrate incubated for 1 hr in presence of ATP by FRET based Z-LYTE assay.
Experiment [25] deals with NT-3 growth factor receptor (Homo sapiens, UniProt Q16288). The experiment is described as follows: Inhibition of TRKC (unknown origin) using Ser/Thr 06 as peptide substrate incubated for 1 hr in presence of ATP by FRET based Z-LYTE assay.
Experiment [26] addresses High affinity nerve growth factor receptor (Homo sapiens, UniProt P04629, G595R). Kind of experiment: Inhibition of TRKA G595R mutant (unknown origin) expressed in baculovirus expression system Sf9 cells using Ser/Thr 06 as peptide substrate incubated for 1 hr in presence of ATP by FRET based Z-LYTE assay.
The target of experiment [27] is High affinity nerve growth factor receptor (Homo sapiens, UniProt P04629). The experiment is described as follows: Inhibition of N-terminal hexa his tagged TRKA (485 to 795 residues) (unknown origin) expressed in baculovirus expression system Sf9 cells using Ser/Thr 06 as peptide substrate incubated for 1 hr in presence of ATP by FRET based Z-LYTE assay.
High affinity nerve growth factor receptor (Homo sapiens, UniProt P04629), sequence (P04629 whole entry, the tested form may be a part): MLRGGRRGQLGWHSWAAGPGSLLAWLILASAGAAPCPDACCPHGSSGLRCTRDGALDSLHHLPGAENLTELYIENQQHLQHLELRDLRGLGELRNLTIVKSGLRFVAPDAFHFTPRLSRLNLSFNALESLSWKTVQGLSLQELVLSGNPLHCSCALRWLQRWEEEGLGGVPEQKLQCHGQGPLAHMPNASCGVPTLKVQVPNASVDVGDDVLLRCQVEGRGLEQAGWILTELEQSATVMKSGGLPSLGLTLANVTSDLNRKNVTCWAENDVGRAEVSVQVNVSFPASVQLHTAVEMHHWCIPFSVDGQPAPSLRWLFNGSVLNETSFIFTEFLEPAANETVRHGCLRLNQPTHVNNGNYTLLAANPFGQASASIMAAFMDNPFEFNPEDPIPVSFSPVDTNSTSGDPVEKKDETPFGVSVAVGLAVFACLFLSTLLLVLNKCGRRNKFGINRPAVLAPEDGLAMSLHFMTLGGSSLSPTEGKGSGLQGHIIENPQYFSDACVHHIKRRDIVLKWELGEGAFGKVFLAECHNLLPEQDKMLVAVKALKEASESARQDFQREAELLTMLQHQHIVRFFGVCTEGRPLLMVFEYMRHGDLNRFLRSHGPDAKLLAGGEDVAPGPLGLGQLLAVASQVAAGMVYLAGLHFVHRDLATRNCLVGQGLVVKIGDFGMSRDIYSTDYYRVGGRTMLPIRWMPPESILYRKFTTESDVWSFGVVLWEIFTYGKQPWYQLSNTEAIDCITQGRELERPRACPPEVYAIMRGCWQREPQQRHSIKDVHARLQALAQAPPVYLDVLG

High affinity nerve growth factor receptor (Homo sapiens, UniProt P04629, G595R), sequence (P04629 33-796 G595R limits assumed): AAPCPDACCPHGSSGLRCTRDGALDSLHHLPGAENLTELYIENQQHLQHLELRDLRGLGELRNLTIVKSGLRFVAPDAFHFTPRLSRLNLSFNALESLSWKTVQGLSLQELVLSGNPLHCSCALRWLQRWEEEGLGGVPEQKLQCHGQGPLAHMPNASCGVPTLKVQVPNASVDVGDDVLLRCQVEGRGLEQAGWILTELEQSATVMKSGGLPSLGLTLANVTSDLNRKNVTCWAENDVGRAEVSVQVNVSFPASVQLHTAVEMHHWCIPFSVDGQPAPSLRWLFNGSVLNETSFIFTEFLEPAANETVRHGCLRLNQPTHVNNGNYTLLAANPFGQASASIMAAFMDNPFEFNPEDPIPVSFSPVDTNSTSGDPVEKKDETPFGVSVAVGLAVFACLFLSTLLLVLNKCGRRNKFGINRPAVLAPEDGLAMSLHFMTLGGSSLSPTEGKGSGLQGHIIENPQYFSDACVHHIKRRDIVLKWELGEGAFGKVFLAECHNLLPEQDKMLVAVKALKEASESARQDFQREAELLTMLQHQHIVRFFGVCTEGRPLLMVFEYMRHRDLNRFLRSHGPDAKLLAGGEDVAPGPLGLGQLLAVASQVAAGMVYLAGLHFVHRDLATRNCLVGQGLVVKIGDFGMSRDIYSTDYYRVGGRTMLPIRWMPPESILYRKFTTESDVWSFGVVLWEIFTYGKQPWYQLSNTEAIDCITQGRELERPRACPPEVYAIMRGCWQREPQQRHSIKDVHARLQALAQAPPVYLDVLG
NT-3 growth factor receptor, sequence (Q16288 whole entry): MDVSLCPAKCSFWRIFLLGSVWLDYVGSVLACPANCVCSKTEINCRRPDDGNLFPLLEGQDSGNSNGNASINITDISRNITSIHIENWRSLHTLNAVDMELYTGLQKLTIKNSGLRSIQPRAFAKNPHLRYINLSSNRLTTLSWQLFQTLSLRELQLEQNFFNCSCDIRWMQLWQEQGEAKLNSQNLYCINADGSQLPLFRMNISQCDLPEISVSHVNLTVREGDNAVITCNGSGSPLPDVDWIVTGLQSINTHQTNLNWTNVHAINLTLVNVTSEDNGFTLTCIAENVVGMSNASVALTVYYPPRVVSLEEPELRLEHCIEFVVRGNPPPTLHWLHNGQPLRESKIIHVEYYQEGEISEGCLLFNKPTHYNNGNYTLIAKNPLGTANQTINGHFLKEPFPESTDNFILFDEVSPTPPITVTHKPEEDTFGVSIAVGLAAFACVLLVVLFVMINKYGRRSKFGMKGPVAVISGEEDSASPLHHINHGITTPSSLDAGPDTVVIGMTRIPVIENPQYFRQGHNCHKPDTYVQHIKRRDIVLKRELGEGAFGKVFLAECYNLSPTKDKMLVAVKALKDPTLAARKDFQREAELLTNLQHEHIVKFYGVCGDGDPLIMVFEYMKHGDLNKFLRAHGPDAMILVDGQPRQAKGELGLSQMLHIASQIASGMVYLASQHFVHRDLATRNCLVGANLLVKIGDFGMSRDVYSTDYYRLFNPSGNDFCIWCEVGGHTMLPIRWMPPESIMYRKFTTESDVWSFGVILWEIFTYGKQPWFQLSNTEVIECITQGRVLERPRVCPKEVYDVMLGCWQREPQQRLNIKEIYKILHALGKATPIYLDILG
High affinity nerve growth factor receptor (Homo sapiens, UniProt P04629, G667C), sequence (P04629 33-796 G667C limits assumed): as the sequence (P04629 33-796 G595R limits assumed) above, with R563G, G635C counted along it

As for `C[C@@H]1CCc2ncc(F)cc2[C@H]2CCCN2c2ccn3ncc(c3n2)C(=O)N1` [SELITRECTINIB], the IC50 in the experiment with BaF3 [1] worked out at 1.35 nM; with BaF3 [2] it was 48.2 nM; in the experiment on BaF3 [3] it was 42 nM; in the experiment with BaF3 [4], 22.2 nM; with BaF3 [5], 30.7 nM; in the experiment on BaF3 [6] it was 4.15 nM. Further, the IC50 with BaF3 [7] is 35.8 nM; in the experiment on BaF3 [8], 10.3 nM; in the experiment with BaF3 [9], 1.36 nM; in the experiment with BaF3 [10] it was 17.2 nM; with BaF3 [11], 26.1 nM; in the experiment on BaF3 [12] it was greater than 1000 nM. Also, the IC50 is 26.4 nM with BaF3 [13]; 41.1 nM in the experiment on BaF3 [14]; 7.48 nM in the experiment with BaF3 [15]; greater than 1000 nM in the experiment with BaF3 [16]; 11 nM in the experiment on BaF3 [17]; 423 nM in the experiment with BaF3 [18]. Moreover, the IC50 with BaF3 [19] was found to be 5.08 nM; in the experiment with BaF3 [20] it was 3.39 nM; in the experiment with BaF3 [21] it was 37 nM; in the experiment on BaF3 [22], 2.32 nM; in the experiment on BaF3 [23], 31.5 nM.
For the molecule `Cc1c2cc(cc1C(=O)Nc1cc(CN3CCCN(C)CC3)cc(C(F)(F)F)c1)OCCCCCCCNC(=O)c1ccc3ncc(n3n1)C#C2`, the IC50 turned out to be 6.74 nM in the experiment with BaF3 [1]; 2.79 nM in [24]; 4.05 nM in experiment [25]; 1.26 nM with BaF3 [4]; 39 nM in experiment [26]; 48.5 nM with BaF3 [8]. In addition, the IC50 in the experiment with BaF3 [9] was 48.4 nM; in the experiment with BaF3 [11] it was 48.1 nM; in experiment [27], 10.2 nM; with BaF3 [23] it was 8.68 nM.
